The target of one experiment is T1, Wild-type ΦKZ TubZ (Pseudomonas phage phiKZ, UniProt Q8SDC3).
T1 construct: gene PHIKZ039; used for light scattering and electron microscopy
The experiment can be described thus: […]° light scattering of polymerisation, electron cryo-microscopy. It is filed as biochemical. To be noted: 2 μM protein, 20 or 200 μM GTP, 200 mM KCl, 5 mM MgCl2, pH 8.0, 25 °C; induces polymerisation.

In a further experiment the target is T2, ΦKZ TubZ-His6 (Pseudomonas phage phiKZ, UniProt Q8SDC3).
T2 construct: gene PHIKZ039; used for crystallography
T2 sequence (Q8SDC3 whole entry): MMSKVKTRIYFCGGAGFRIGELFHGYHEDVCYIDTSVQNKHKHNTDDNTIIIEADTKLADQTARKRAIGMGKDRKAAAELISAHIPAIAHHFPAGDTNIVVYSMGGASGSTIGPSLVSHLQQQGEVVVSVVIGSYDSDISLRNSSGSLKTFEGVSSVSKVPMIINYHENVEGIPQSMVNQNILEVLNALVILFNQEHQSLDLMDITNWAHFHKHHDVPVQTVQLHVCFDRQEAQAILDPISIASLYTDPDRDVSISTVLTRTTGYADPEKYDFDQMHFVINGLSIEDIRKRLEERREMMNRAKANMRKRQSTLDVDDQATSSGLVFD
As to the kind of experiment: X-ray crystal structure. It is filed as binding. The note with it: 2.0 Å monomer (GDP retained through purification, 150 mM Tris-Cl pH 8.0) and 1.7 Å protofilament (crystallised with GTPγS, pH 5.5); GTPase active site.

T1 sequence (Q8SDC3 whole entry): as above

For `Nc1nc2c(ncn2[C@@H]2O[C@H](COP(=O)(O)OP(=O)(O)OP(=O)(O)O)[C@@H](O)[C@H]2O)c(=O)[nH]1` [GTP], at Wild-type ΦKZ TubZ, the “90° light scattering of polymerisation, electron cryo-microscopy” value was “ΦKZ TubZ filaments proved extremely dynamic in the presence of GTP”.

As to `Nc1nc2c(ncn2[C@@H]2O[C@H](COP(=O)(O)OP(=O)(O)O)[C@@H](O)[C@H]2O)c(=O)[nH]1` [GDP], at ΦKZ TubZ-His6, the X-ray crystal structure entry is given as “The GTPase active site within the subunit was occupied by GDP, which was retained”.

For the origin of these results see publication PMC3678025, “Structure of the Tubulin/FtsZ-Like Protein TubZ from Pseudomonas Bacteriophage ΦKZ” (Journal of Molecular Biology, 2013).
